Target: Ephrin type-B receptor 4 (Homo sapiens) (UniProt P54760)
Experiment: inhibition of human ephrin receptor B4 activity – biochemical, Z'-LYTE, FRET, protease-coupled, direct format, dose response (AID 1671276)
Settings: EPHB4 kinase, Z'-LYTE FRET peptide phosphorylation

Ephrin type-B receptor 4 (Homo sapiens), sequence (P54760 whole entry, looked up): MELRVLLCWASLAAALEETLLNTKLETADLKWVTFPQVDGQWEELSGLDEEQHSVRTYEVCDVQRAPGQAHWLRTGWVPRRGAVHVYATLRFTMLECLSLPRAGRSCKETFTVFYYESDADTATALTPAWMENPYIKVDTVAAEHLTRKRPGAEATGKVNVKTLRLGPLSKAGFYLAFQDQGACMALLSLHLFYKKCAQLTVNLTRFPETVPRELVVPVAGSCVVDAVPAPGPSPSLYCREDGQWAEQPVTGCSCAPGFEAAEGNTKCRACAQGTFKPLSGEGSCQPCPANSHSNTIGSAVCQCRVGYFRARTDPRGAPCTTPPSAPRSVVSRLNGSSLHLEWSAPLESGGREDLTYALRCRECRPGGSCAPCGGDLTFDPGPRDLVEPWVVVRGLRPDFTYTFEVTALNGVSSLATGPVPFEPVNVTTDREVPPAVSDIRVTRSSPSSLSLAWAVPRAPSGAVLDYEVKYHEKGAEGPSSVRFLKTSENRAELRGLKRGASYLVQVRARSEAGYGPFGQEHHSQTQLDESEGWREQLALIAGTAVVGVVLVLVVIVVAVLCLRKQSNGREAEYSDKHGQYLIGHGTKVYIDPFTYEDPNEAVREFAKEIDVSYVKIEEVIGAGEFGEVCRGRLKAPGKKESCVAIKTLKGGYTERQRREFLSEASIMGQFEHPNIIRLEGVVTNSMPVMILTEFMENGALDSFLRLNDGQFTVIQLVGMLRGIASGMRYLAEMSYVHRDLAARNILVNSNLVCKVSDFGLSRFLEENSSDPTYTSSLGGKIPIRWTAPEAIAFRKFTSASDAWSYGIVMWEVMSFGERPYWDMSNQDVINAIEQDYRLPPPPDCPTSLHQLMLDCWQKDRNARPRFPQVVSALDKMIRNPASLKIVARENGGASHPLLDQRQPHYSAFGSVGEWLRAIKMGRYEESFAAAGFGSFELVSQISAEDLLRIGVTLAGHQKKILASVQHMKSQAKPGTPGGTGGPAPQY

IC50: 1590 nM
Structure (SMILES): COc1cc2ncnc(Nc3cccc(Cl)c3)c2cc1OC

From PubChem BioAssay AID1671276
